Where a name gives a salt, the structure may show the parent alone.
Assays:
JH2 domain of human Tyk2 = target: T1, JH2 domain of human Tyk2 (Homo sapiens, UniProt P29597); experiment: JH2 biochemical assay (TR-FRET probe displacement); type: binding; settings: JH2 biochemical assay
T1 construct: 10×His-tagged TYK2 JH2 domain (amino acid 575-876)
Method in brief: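 A probe-displacement TR-FRET readout: compounds, tested in 3-fold, 10-point dilutions starting at […], compete with 2 nM tracer for 2 nM His-tagged JH2 (residues 575-876) detected by 0.1 nM Tb-anti-His over 60 min. IC50 comes from 4-parameter fits of normalized 520/495 nm ratios.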

[1] = system: Tyk2 kinase activity on STAT4; experiment: pSTAT4 cell assay (MSD, NK92 cells); type: cell-based; settings: compounds 1 hr, stimulated 15 minutes
Method in brief: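 Read-out: phospho-STAT in NK92 lysates, MSD format, anti-STAT4 antibodies. Cells were serum-starved, given compound for 1 hr (10 μM top, four-fold, 10 points) and IL2-stimulated (30 ng/mL, 15 min). Normalized percent activity vs log concentration, 4-parameter logistic fit gave IC50.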

T1 sequence (P29597 575-876): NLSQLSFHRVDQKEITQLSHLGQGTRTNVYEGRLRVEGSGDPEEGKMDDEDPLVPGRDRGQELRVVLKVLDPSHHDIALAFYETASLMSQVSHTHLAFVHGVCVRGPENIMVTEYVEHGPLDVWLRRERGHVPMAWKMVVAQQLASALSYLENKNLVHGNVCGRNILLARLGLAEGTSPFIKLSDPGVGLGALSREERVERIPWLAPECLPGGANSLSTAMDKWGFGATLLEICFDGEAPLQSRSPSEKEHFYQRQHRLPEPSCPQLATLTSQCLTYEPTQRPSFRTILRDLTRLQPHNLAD

Q: For `CC(=O)Nc1cc2c(cn1)C1(CC1)CN2c1cc(C)cc(C23COC(C)(C2)C3)n1` [Example 306, N-(1′-(4-methyl-6-(1-methyl-2-oxabicyclo[2.1.1]hexan-4-yl)pyridin-2-yl)-1′,2′-dihydrospiro[cyclopropane-1,3′-pyrrolo[3,2-c]pyridin]-6′-yl)acetamide], which IC50 (JH2 domain of human Tyk2) is on record?
A: Its IC50 is 10 to 100 nM.

Q: What about the IC50 [1] of the same molecule?
A: The IC50 was at least 1000 nM.

Q: Which results are given for `CCc1cc(N2CC3(CC3)c3cnc(NC(N)=O)cc32)nc(C(C)(F)F)n1` [Example 309, 1-(1′-(2-(1,1-difluoroethyl)-6-ethylpyrimidin-4-yl)-1′,2′-dihydrospiro[cyclopropane-1,3′-pyrrolo[3,2-c]pyridin]-6′-yl)urea]?
A: IC50 (JH2 domain of human Tyk2): ≤ 10 nM; IC50 [1]: ≤ 10 nM

Q: Which IC50 (JH2 domain of human Tyk2) does the source give for `CC(=O)Nc1cc2c(cn1)C1(CC1)CN2c1cc(-c2cnn(C)c2F)nc(C(C)(F)F)n1` [Example 310, N-(1′-(2-(1,1-difluoroethyl)-6-(5-fluoro-1-methyl-1H-pyrazol-4-yl)pyrimidin-4-yl)-1′,2′-dihydrospiro[cyclopropane-1,3′-pyrrolo[3,2-c]pyridin]-6′-yl)acetamide] here?
A: The IC50 was at most 10 nM.

Q: And the IC50 [1]?
A: The IC50 was 10 to 100 nM.

Q: Which results are given for `CCc1cc(N2CC3(CC3)c3cnc(NC(=O)OC)cc32)nc(C(C)(F)F)n1` [Example 311, Methyl (1′-(2-(1,1-difluoroethyl)-6-ethylpyrimidin-4-yl)-1′,2′-dihydrospiro[cyclopropane-1,3′-pyrrolo[3,2-c]pyridin]-6′-yl)carbamate trifluoroacetate]?
A: IC50 (JH2 domain of human Tyk2): ≤ 10 nM; IC50 [1]: 10 to 100 nM

Q: `CC(=O)Nc1cc2c(cn1)C1(CC1)CN2c1cc(C)nc(C(C)(C)F)n1` [Example 312, N-(1′-(2-(2-fluoropropan-2-yl)-6-methylpyrimidin-4-yl)-1′,2′-dihydrospiro[cyclopropane-1,3′-pyrrolo[3,2-c]pyridin]-6′-yl)acetamide] was tested. Which IC50 (JH2 domain of human Tyk2) did it give?
A: Its IC50 is at most 10 nM.

Q: And the IC50 [1]?
A: Its IC50 is 10 to 100 nM.

Q: What does the source list for `COc1cccc(N2CC3(CC3)c3cnc(NC(C)=O)cc32)n1` [Example 313, N-(1′-(6-methoxypyridin-2-yl)-1′,2′-dihydrospiro[cyclopropane-1,3′-pyrrolo[3,2-c]pyridin]-6′-yl)acetamide]?
A: IC50 (JH2 domain of human Tyk2): 10 to 100 nM; IC50 [1]: ≥ 1000 nM

Q: What does the source list for `CCc1cc(N2CC3(CC3)c3cnc(NC(C)=O)cc32)nc(C)n1` [Example 314, N-(1′-(6-ethyl-2-methylpyrimidin-4-yl)-1′,2′-dihydrospiro[cyclopropane-1,3′-pyrrolo[3,2-c]pyridin]-6′-yl)acetamide]?
A: IC50 (JH2 domain of human Tyk2): 10 to 100 nM; IC50 [1]: ≥ 1000 nM

Q: For `COCC(F)(F)c1cc(C)cc(N2CC3(CC3)c3cnc(NC(C)=O)cc32)n1` [Example 315, N-(1′-(6-(1,1-difluoro-2-methoxyethyl)-4-methylpyridin-2-yl)-1′,2′-dihydrospiro[cyclopropane-1,3′-pyrrolo[3,2-c]pyridin]-6′-yl)acetamide trifluoroacetate], which IC50 (JH2 domain of human Tyk2) is on record?
A: Its IC50 is 10 to 100 nM.

Q: What about the IC50 [1] of the same molecule?
A: The IC50 was at least 1000 nM.

Q: What does the source list for `CC(=O)Nc1cc2c(cn1)C1(CC1)CN2c1cc(C)cc(C(F)(F)CF)n1` [Example 316, N-(1′-(4-methyl-6-(1,1,2-trifluoroethyl)pyridin-2-yl)-1′,2′-dihydrospiro[cyclopropane-1,3′-pyrrolo[3,2-c]pyridin]-6′-yl)acetamide trifluoroacetate]?
A: IC50 (JH2 domain of human Tyk2): ≤ 10 nM; IC50 [1]: 10 to 100 nM

Q: How did the IC50 (JH2 domain of human Tyk2) turn out when `COC1CC(c2nc(C)cc(N3CC4(CC4)c4cnc(NC(C)=O)cc43)n2)C1` (stereo not shown) [Example 317, N-(1′-(2-(3-methoxycyclobutyl)-6-methylpyrimidin-4-yl)-1′,2′-dihydrospiro[cyclopropane-1,3′-pyrrolo[3,2-c]pyridin]-6′-yl)acetamide] was run?
A: The IC50 was at most 10 nM.

Q: What about the IC50 [1] of the same molecule?
A: The IC50 was 100 to 1000 nM.

Q: What does the source list for `CC(=O)Nc1cc2c(cn1)C1(CC1)CN2c1cc(C)nc(C23COC(C)(C2)C3)n1` [Example 318, N-(1′-(6-methyl-2-(1-methyl-2-oxabicyclo[2.1.1]hexan-4-yl)pyrimidin-4-yl)-1′,2′-dihydrospiro[cyclopropane-1,3′-pyrrolo[3,2-c]pyridin]-6′-yl)acetamide]?
A: IC50 (JH2 domain of human Tyk2): 10 to 100 nM; IC50 [1]: ≥ 1000 nM
